Here are results for 23 compounds from PubChem BioAssay AID389 (SGCOxCompounds, 2006).

The target of this assay is Serine/threonine-protein kinase PAK 4 (Homo sapiens) (UniProt O96013). Kind of assay: compound-induced PAK4 thermal stabilization – biophysical, human, DSF, SYPRO orange (AID 389). To be noted: recombinant PAK4 DSF thermal shift, at 10 µM, protein 2 µM, buffer 10 mM HEPES, pH 7.5, NaCl 150 mM, active compounds read high.
Sequence of Serine/threonine-protein kinase PAK 4 (Homo sapiens) (O96013 whole entry, looked up): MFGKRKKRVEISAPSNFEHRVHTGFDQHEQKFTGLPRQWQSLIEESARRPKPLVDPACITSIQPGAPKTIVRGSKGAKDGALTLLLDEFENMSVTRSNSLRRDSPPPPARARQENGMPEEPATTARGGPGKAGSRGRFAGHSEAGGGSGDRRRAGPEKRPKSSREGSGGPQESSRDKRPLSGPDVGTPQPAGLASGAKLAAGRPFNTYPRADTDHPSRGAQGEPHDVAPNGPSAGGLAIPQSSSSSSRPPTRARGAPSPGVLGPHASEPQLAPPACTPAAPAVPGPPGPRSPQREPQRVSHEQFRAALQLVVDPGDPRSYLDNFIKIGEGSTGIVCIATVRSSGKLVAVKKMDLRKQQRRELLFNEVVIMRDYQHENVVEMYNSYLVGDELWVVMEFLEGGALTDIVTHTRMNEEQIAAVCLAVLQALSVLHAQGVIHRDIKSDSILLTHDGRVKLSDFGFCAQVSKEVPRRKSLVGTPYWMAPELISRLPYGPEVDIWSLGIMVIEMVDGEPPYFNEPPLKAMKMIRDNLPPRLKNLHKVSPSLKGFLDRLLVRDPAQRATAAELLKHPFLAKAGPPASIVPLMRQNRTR

`CCN(CC)CCNC(=O)c1c(C)[nH]c(/C=C2\C(=O)Nc3ccc(Cl)cc32)c1C`: the Tm shift is 6.4 Celsius.
With `O=C(c1ccc(Nc2nccc(-c3cc4ccccc4s3)n2)cc1)N1CCC(N2CCCC2)CC1`, the Tm shift was 3.23 Celsius.
Turning to `CC(C)C(CO)Nc1nc(Nc2cccc(Cl)c2)c2ncn(C(C)C)c2n1` (stereo not drawn), the Tm shift was 4.7 Celsius.
To `Nc1nc(Nc2ccc(S(N)(=O)=O)cc2)nn1C(=S)Nc1c(F)cccc1F` belongs 6.03 Celsius; to `N=C(N)SCCCn1cc(C2=C(c3c[nH]c4ccccc34)C(=O)NC2=O)c2ccccc21`, 3.43 Celsius; to `O=C1NCc2c1c1c3ccccc3[nH]c1c1[nH]c3ccccc3c21`, 3.8 Celsius.
To `O=Nc1c(-c2c(O)[nH]c3ccc(I)cc23)[nH]c2ccccc12` belongs 3.73 Celsius; to `N#CCCc1ccc2c(c1)-c1[nH]c3ccc(-n4oo4)cc3c1CC(=O)N2`, 3.68 Celsius; to `COc1cc(/C=C/C(=O)CC(=O)/C=C/c2ccc(O)c(OC)c2)ccc1O`, 3.34 Celsius.
For the compound `Cc1cc(Nc2nc(-c3ccccc3)nc3ccccc23)n[nH]1`, the Tm shift was 5.9 Celsius.
With `CCn1cnc2c(Nc3cccc(Cl)c3)nc(N[C@@H]3CCCC[C@@H]3N)nc21`, the Tm shift was 6.44 Celsius.
Regarding `CC(C)n1cnc2c(Nc3cccc(Cl)c3)nc(NCCO)nc21`, the Tm shift was 3.7 Celsius.
To `NC(=O)Nc1sc(-c2ccccc2)cc1C(N)=O` belongs 4.28 Celsius; to `CC(O)(O)C1(O)C[C@@H]2O[C@@]1(C)n1c3ccccc3c3c4c(c5c6ccccc6n2c5c31)C(=O)NC4` (stereo partly drawn), 3.9 Celsius.
To `O=C1Cc2c([nH]c3ccc(Br)cc23)-c2ccccc2N1` belongs 4.62 Celsius.
With `Cn1cc(/C=C2\C(=O)Nc3ccc(S(N)(=O)=O)cc32)c2ccccc21` the figure was 3.69 Celsius; with `Clc1ccc(-c2cnc3ccc(NC4CCOCC4)nn23)cc1`, 3.1 Celsius; with `NCCCn1cc(C2=C(c3c[nH]c4ccccc34)C(=O)NC2=O)c2ccccc21`, 4.27 Celsius.
Take `OCC(O)CCO/N=C1/C(c2c(O)[nH]c3ccccc23)=Nc2ccccc21` (stereo not drawn): the Tm shift was 4.7 Celsius.
To `NS(=O)(=O)c1ccc(Nc2nc(OCC3CCCCC3)c3[nH]cnc3n2)cc1` belongs 3.8 Celsius; to `NCCNc1ncc(C(N)=O)c(Nc2cccc(C(F)(F)F)c2)n1`, 5.9 Celsius; to `O=C1NC(=O)c2c1c1c3ccccc3n3c1c1c2c2ccccc2n1[C@@H]1CCC3O1`, 4.92 Celsius.
In the case of `O=c1[nH]c(O)c2c1c1c3ccccc3nc1n1cncc21`, the Tm shift is 3.8 Celsius.
